# In publication PMC4140855, “Production of an Attenuated Phenol-Soluble Modulin Variant Unique to the MRSA Clonal Complex 30 Increases Severity of Bloodstream Infection” (PLoS Pathogens, 2014):
# Key:
# [1] = test system: abscess or lesion; experiment: Mouse model of skin infection (abscess sizes); type: in vivo; details: Crl∶SKH1-hrBR mice, subcutaneous, 14 d; expressed in strains MRSA252 and 22030
# Experimental: The mouse skin infection model was performed as described. Briefly, six to eight week-old female Crl∶SKH1-hrBR hairless mice (Charles River Laboratories) were injected subcutaneously with ∼4×10^7 CFU of S. aureus strains 252 or 252*, or ∼5×10^6 CFU of S. aureus strains 22030 or 22030* in 50 µl of PBS in the left flank of the mouse. The length (L) and width (W) of the abscess or lesion caused by the bacterial infection was measured with an electronic caliper daily for 14 d post infection and calculated using the formula L×W. Typically, strain MRSA252 caused closed abscesses and strain 22030 open lesions. All animals were euthanized after completion of the entire procedure. All mouse experiments were performed blinded at the animal care facility of the NIAID, Building 33, in compliance with the guidelines of the NIAID/NIH Institutional Animal Care and Use Committee.
# Supplementary file ppat.1004298.s002.tif: Figure S2 Mouse model of skin infection. […] The length (L) and width (W) of the abscess or lesion caused by the bacterial infection was measured with an electronic caliper daily for 14 d post infection and calculated using the formula L×W. Typically, strain MRSA 252 caused closed abscesses and strain 22030 open lesions. […]
# [2] = test system: human neutrophils; experiment: Human neutrophil chemotaxis / Ca2+ flux with FPR1 inhibited by CHIPS; type: cell-based; details: peptide 100 nM; CHIPS 1.4 µg/ml, 20 min pre-incubation at room temperature; three donors, quadruplicate
# Experimental: Next, we analyzed Ca^2+ flux as a general measure to test for neutrophil activation, as used in previous studies. HL60 cells stably transfected with different FPR receptor genes were used to determine which FPR receptors are differentially activated by PSMα3 versus PSMα3N22Y (Fig. 4A). […] At a peptide concentration of 100 nM, we observed a difference of ∼factor 2 in chemotactic activity comparing the two peptides when FPR1 recognition was inhibited by CHIPS, likely attributable to FPR2-mediated recognition. […]
# (A) Differential activation of FPRs by PSMα3 versus PSMα3N22Y was measured using synthetic peptides and Ca^2+ flux observed in HL60 cells stably transfected with the corresponding FPR genes as readout, using three biological and two technical replicates. The calculated Kd values are shown on the right. […]
# Human neutrophils were isolated from venous blood of healthy donors as described, [39]. Neutrophil chemotaxis and Ca^2+ flux were determined as previously described, [24]. […] Chemotaxis of neutrophils was determined using a transwell system (Costar) with analysis of neutrophil migration using fluorescence labeling. Calcium fluxes were monitored as a surrogate marker for chemotaxis since it can be measured more robustly and accurately than chemotaxis. […] Measurements of 2,000 events were performed and Ca^2+ flux was expressed as relative fluorescence corrected for buffer controls. […]
Structure (SMILES),Virulence in skin infections as measured by abscess sizes [1],"Factor of difference in chemotactic activity between the two peptides, FPR1 inhibited by CHIPS [2]"
CSCC[C@H](NC=O)C(=O)N[C@@H](CCC(=O)O)C(=O)N[C@@H](Cc1ccccc1)C(=O)N[C@H](C(=O)N[C@@H](C)C(=O)N[C@@H](CCCCN)C(=O)N[C@@H](CC(C)C)C(=O)N[C@@H](Cc1ccccc1)C(=O)N[C@@H](CCCCN)C(=O)N[C@@H](Cc1ccccc1)C(=O)N[C@@H](Cc1ccccc1)C(=O)N[C@@H](CCCCN)C(=O)N[C@@H](CC(=O)O)C(=O)N[C@@H](CC(C)C)C(=O)N[C@@H](CC(C)C)C(=O)NCC(=O)N[C@@H](CCCCN)C(=O)N[C@@H](Cc1ccccc1)C(=O)N[C@@H](CC(C)C)C(=O)NCC(=O)N[C@@H](CC(N)=O)C(=O)N[C@@H](Cc1ccc(O)cc1)C(=O)O)C(C)C [PSMα3N22Y],did not cause increased virulence in skin infections,–
CSCC[C@H](NC=O)C(=O)N[C@@H](CCC(=O)O)C(=O)N[C@@H](Cc1ccccc1)C(=O)N[C@H](C(=O)N[C@@H](C)C(=O)N[C@@H](CCCCN)C(=O)N[C@@H](CC(C)C)C(=O)N[C@@H](Cc1ccccc1)C(=O)N[C@@H](CCCCN)C(=O)N[C@@H](Cc1ccccc1)C(=O)N[C@@H](Cc1ccccc1)C(=O)N[C@@H](CCCCN)C(=O)N[C@@H](CC(=O)O)C(=O)N[C@@H](CC(C)C)C(=O)N[C@@H](CC(C)C)C(=O)NCC(=O)N[C@@H](CCCCN)C(=O)N[C@@H](Cc1ccccc1)C(=O)N[C@@H](CC(C)C)C(=O)NCC(=O)N[C@@H](CC(N)=O)C(=O)N[C@@H](CC(N)=O)C(=O)O)C(C)C [PSMα3],–,~2
